Assay results as given in patent US20250066727A1, “COMPOSITIONS AND METHODS FOR CULTURING STEM CELLS” (Beijing TheraXyte BioScience Co. Ltd., priority 2021, published 2025).

Legend:
Type in all cases: cell-based
[1] = system: adult KSCs; assay: Growth supplement function assay (EdU / p63); conditions: 24 hours; for concentration that could promote adult KSCs proliferation (EdU/p63 ratio): added to KSFX-free basal medium
Method: For the EdU (5-ethynyl-2′-deoxyuridine) assay, 5×10^3 cells were plated to a well of the 96-well cell culture plate and cultured for overnight. On the second day, the cells were treated with 10 μM EdU for 3 hours at 37° C. The cells were washed with PBS and then fixed with 4% formaldehyde for 30 min at RT. The cells were washed with PBS and then permeabilized with 0.1% Triton for 20 min at RT. The cells were washed with PBS and then labeled with freshly prepared EdU labeling buffer containing 5 μM of Sulfo-Cyanine 3 azide, 4 mM of Copper(II) sulfate pentahydrate, 2 mg/mL of Sodium L-ascorbate in PBS for 30 min at RT. The cells were washed with PBS and labeled with Hoechst if needed. Finally, the plate was scanned and analyzed by Celllnsight CX5 HCA reader.
Cells were washed with PBS once and then fixed with 4% formaldehyde for 30 min at room temperature (RT). The cells were washed with PBS and then permeabilized with 0.1% Triton for 20 min at RT The cells were washed with PBS and then blocked with 3% BSA for 1 hr at RT. Then the cells were incubated with primary antibodies such as anti-KRT14, or anti-p63 overnight at 4° C. The cells were washed with PBS and labeled with the secondary antibody such as Goat anti-Mouse Alexa Fluor 488, Goat anti-Rabbit Alexa Fluor 647, and Hoechst if needed. Finally, the plate was scanned and analyzed by CellInsight CX5 HCA reader. Microscopy was captured with Confocal Microscope A1 HD25.
Different concentrations of each factor were added to the KSFX-free basal medium and the adult KSCs were cultured for 24 hours. Then cells were labeled with EdU as well as the KSCs marker p63. The ratio of EdU/p63 indicates the proliferation rate of KSCs, and the p63 count indicates the total cell number which is a result of cell proliferation and cell death.

[2] = system: adult KSCs; assay: Calcium concentration function assay in KSFX-free basal medium
Method: (§1) For long-term proliferation assay, cells were continuously passaged on the 6-well cell culture plate. For each passage, 2×10^5 viable cells were plated and then cultured for about 5 days, when the cells were ˜90% confluent, cells were passaged and the cell number as well as the viability with the cell counter were recorded. Microscopy was performed with Eclipse TS100 (Nikon).
The effect of calcium concentrations in the KSFX-free basal medium on the proliferation and differentiation of adult KSCs were tested. Cells were cultured in different concentrations of calcium, including 0 mM, 0.05 mM, 0.15 mM, 0.5 mM, and 1.5 mM for 10 passages. As shown in FIG. 8 and FIG. 9A, withdraw of calcium led to the growth stop of adult KSCs after 3 passages.

[3] = system: adult KSCs; assay: Coating matrix function assay: attachment and spreading of adult KSCs in KSFX-free basal medium
Method: Coating Matrix Preparation—Coating matrix such as Collagen I, Poly-D-Lysine (PDL), Matrigel, rh-Fibronectin, and rh-Laminin 521 were prepared according to the instructions of the manufacture (Table 1). Briefly, for one well of the 6-well cell culture plate, 1 mL of the working solution was added to the surface of the well and the plate was incubated at the recommended condition. Then the well was washed once with 1 mL of PBS and ready to be used.
The keratinocyte stem cells (KSCs) were isolated from donated foreskin or fetal skin tissue. Briefly, the skin tissue was cleaned up with 70% ethanol and washed several times with PBS containing antibiotics. The tissue in PBS was collected, trimmed away any fat and loose fascia, and cut into strips approximately 0.5 cm×1.5 cm. The tissue was submerged in dispase and treated overnight at 4° C. The epidermis was then separated from the dermis and washed with PBS several times. All the epidermis was collected into one tube containing the TrypLE and incubated for 30 minutes at 37° C. Enough PBS was added to neutralize the TrypLE and the solution was pipetted up and down to suspend the cells. The cell suspension was passed through a 70 μm cell strainer, and then the cells were pelleted by centrifugation at 300 g for 10 minutes. The cell pellet was resuspended in culture medium and the concentration of the viable cells/mL was determined. 2×10^4 viable epidermal cells/cm^2 was plated on culture flask treated with coating matrix, and then the flask was incubated in a 37° C., 95% air/5% CO2 saturated humidity chamber. The culture medium was changed every 48 hours. Once the cultures were ˜80% confluent, the cells were subcultured and/or cryopreserved using a freezing medium. For subculture, cells were washed once by PBS then treated with TrypLE for no more than 6 min at 37° C. PBS was added to neutralize the TrypLE, and then the tube was centrifuged at 300 g for 10 min. New flasks were seeded at 1-2×10^4 cells/cm^2.
The function of each coating matrix listed in Table 1 was tested for the attachment and spreading of adult KSCs. […]

[4] = system: adult KSCs; assay: Long-term proliferation of adult KSCs on coating matrix in KSFX-free basal medium; conditions: 5 passages
Method: as §1
Further, the proliferation functions of FN, COLI, and LN was also tested in the KSFX-free basal medium. Adult KSCs were continuously passaged and the population doubling (PD) curves were calculated.

[5] = 1.5 mM calcium, KSFX-free basal medium

`Cc1cccc(-c2nn(C(=S)Nc3ccccc3)cc2-c2ccnc3ccccc23)n1` [A 83-01] was tested, and the “concentration that could promote adult KSCs proliferation (EdU/p63 ratio)” value [1] was “at least 0.5 μM”.
In the case of `C[C@@H](N)[C@H]1CC[C@H](C(=O)Nc2ccncc2)CC1` [Y-27632], the “concentration that could promote adult KSCs proliferation (EdU/p63 ratio)” value [1] is reported as “at least 1 μM” and the “change of the total cell number (p63 count) compared with the blank” value ([1]; at least 1 μM (such as 1-10 μM), KSFX-free basal medium) is reported as “two-fold change”.
`[Ca+2]` [calcium] was tested, and the “passages after which adult KSCs stopped growing” value ([2]; 0 mM calcium (withdraw of calcium), KSFX-free basal medium) was 3 passages, the “proliferation rate of adult KSCs” value ([2]; 0.05 mM calcium, later passages) was “started to grow slower later” and the “proliferation of adult KSCs” value ([2]; 0.5 mM calcium, KSFX-free basal medium) was “could proliferate longer, with more cell-to-cell connections”. The “differentiation of adult KSCs” value [2, 5] was “most of cells had differentiated with the collapsed nucleus”, the “passages after which adult KSCs stopped growing” value [2, 5] was 5 passages and the “calcium concentration that can better support the long-term expansion of adult KSCs” value ([2]; KSFX-free basal medium, 10 passages) was 0.1 to 1.0 mM.
With “COLI: Collagen I coating matrix, extracted from rat tail, 50 μg/mL” the “attachment and spreading of adult KSCs” value ([3]; after 30 min of culturing, bright-field microscopy) was “attached to the plate and spread with a flatten morphology”, the “attachment and spreading of adult KSCs” value ([3]; after 2 hours of culturing) was “fully spread” and the “attachment/spreading function, comparison among the coating matrix tested” value ([3]; overall) was “performed better functions compared with MAT and PDL”. For the same compound, the “long-term expansion of adult KSCs in vitro” value [4] was “supported the long-term expansion of adult KSCs in vitro” and the “proliferation of adult KSCs (population doubling) compared with blank” value ([4]; continuously passaged) was “could promote the proliferation of adult KSCs”.
